# Data published in patent US20260248882A1, “USE OF ANNEXIN A5 IN HAIR GROWTH, HAIR NURTURING, HAIR CARE, HAIR LOSS PREVENTION, AND HAIR LOSS TREATMENT, AND RELATED PRODUCTS AND PHARMACEUTICAL COMPOSITIONS” (SHANGHAI CELLEAF BIOTECHNOLOGY CO., LTD, priority 2023, published 2026).
# Legend:
# [1] = system: mouse androgenetic hair loss model; test: Hair growth observation in mouse androgenetic hair loss model (DHT-induced); type: in vivo; conditions: C57BL/6 male mice, depilated back, FIG. 1
# Protocol: (§1) Experimental animals: C57BL/6 male mice, 5-7 weeks old, weighing around 20 g were housed in a 12 hour light/12 hour dark environment, with free access to food and water. The experiment set up control group (CTRL); model group (DHT); A5-Low group (treated with Annexin A5, injected once every three days); and A5-High group (treated with Annexin A5, injected once a day). Each group consists of 6 mice.
# (§2) Modeling and administration: Dihydrotestosterone (DHT) was used to induce the formation of the mouse androgenetic hair loss model. In addition to the control group, the other three groups of mice received subcutaneous injection of DHT solution (5 mg/mL) at the neck, 0.01 mL for each, for a total of 2 weeks. The control group was injected with an equal volume of physiological saline. After 2 weeks, all mice were shaved and their back hair was removed using a shaving knife. Then hair removal cream was used to further remove residual hair from the shaved area of the mice. After hair removal, both the control group and the model group were injected daily with […] of PBS in the hair removal area, divided into 10 injection points, with 20 μL per point. The A5-Low group received Annexin A5 treatment once every three days, while the A5-High group received Annexin A5 treatment once a day. […] The status of hair growth on the back of mice was observed every day and recorded by taking photos. […]
# [2] = system: mouse androgenetic hair loss model; test: Histological HE staining analysis of skin sections; type: in vivo; conditions: DHT model mice treated with Annexin A5 for 2 weeks, FIG. 2
# Protocol: as §1
# Modeling and administration: Dihydrotestosterone (DHT) was used to induce the formation of the mouse androgenetic hair loss model. In addition to the control group, the other three groups of mice received subcutaneous injection of DHT solution (5 mg/mL) at the neck, 0.01 mL for each, for a total of 2 weeks. The control group was injected with an equal volume of physiological saline. After 2 weeks, all mice were shaved and their back hair was removed using a shaving knife. Then hair removal cream was used to further remove residual hair from the shaved area of the mice. After hair removal, both the control group and the model group were injected daily with […] of PBS in the hair removal area, divided into 10 injection points, with 20 μL per point. The A5-Low group received Annexin A5 treatment once every three days, while the A5-High group received Annexin A5 treatment once a day. The injection method was subcutaneous injection at 10 points in the hair removal area, with 20 μL of Annexin A5 at a concentration of 50 μg/mL injected at each point. The status of hair growth on the back of mice was observed every day and recorded by taking photos. Samples were collected after 16 days.
# Tissue sampling: After drug treatment, mice were euthanized by cervical dislocation. […]
# Sections were taken for xylene dewaxing and gradient ethanol hydration, and then hematoxylin and eosin staining was performed. […] The next day, an optical microscope was used to observe and record, and the number of hair follicles was statistical analyzed.
# [3] = system: Ki67 (cell proliferation marker); test: Ki67 immunohistochemical staining of paraffin skin sections; type: in vivo, mouse; conditions: DHT model mice after Annexin A5 treatment; FIG. 3
# Protocol: as §1, §2
# [4] = system: CD31 (vascular angiogenesis marker); test: CD31 immunohistochemical staining of paraffin skin sections; type: in vivo, mouse; conditions: DHT model mice after Annexin A5 treatment; FIG. 3
# Protocol: as §1, §2
# [5] = system: androgen receptor (AR); test: Western Blot of androgen receptor expression in isolated dermal papillae; type: in vivo, mouse; conditions: DHT model mice, A5-Low/A5 High groups, FIG. 4
# Protocol: as §1
# (§3) Modeling and administration: Dihydrotestosterone (DHT) was used to induce the formation of the mouse androgenetic hair loss model. In addition to the control group, the other three groups of mice received subcutaneous injection of DHT solution (5 mg/mL) at the neck, 0.01 mL for each, for a total of 2 weeks. The control group was injected with an equal volume of physiological saline. After 2 weeks, all mice were shaved and their back hair was removed using a shaving knife. […] The status of hair growth on the back of mice was observed every day and recorded by taking photos. […]
# (§4) Sample Treatment: After euthanizing the mice, 1 cm^2 skin tissue was collected, and the hair on the skin surface was removed with a scissors as much as possible. […] The supernatant was collected by high-speed centrifugation, the protein concentration was determined using BCA method, and protein samples were prepared according to Western Blot requirements. […]
# [6] = system: transforming growth factor β1 (TGF β-1); test: Western Blot of TGF-β1 expression in isolated dermal papillae; type: in vivo, mouse; conditions: DHT model mice, A5-Low/A5 High groups, FIG. 4
# Protocol: as §1, §3, §4
substance,measurement,setting,value
Annexin A5: calcium phospholipid binding protein composed of a single polypeptide chain of 319 amino acids,entry into anagen phase (skin turning black),[1]; A5-Low and A5-High groups,entered the anagen phase earlier
same,hair growth ability,"[1]; subcutaneous Annexin A5 50 μg/mL, 10 points x 20 μL, once every three days or once a day, observed 16 days",significantly enhanced hair growth ability
same,dermal thickness,[2],did not affect
same,follicle size,[2],did not affect
same,number of hair follicle dermal papillae,[2],did not affect
same,proliferation and survival ability of cells in the hair follicles (Ki67),[3],improved
same,number of capillaries around the dermal papillae (CD31),[4],increased
same,AR expression in dermal papillae,[5],significant inhibition
same,TGF-β1 expression in dermal papillae,[6],significant inhibition
